Data taken from PMC7937321 (Genes and Environment, 2021).

Tests used:
[1] = test system: human lymphoblastoid TK6 cells, thymidine kinase gene; experiment: TK gene mutation assay (TK6 assay, OECD TG490)
Method: In principle, this collaborative study conducted the treatment of test substances, the dose finding, and the main test of TK6 assays, according to the OECD Guideline TG490 [17]. […] Briefly, test substances were dissolved in an appropriate solvent (DMSO or ethanol) and then serially diluted to prepare final concentrations. […] The 4 h and 24 h treatments were conducted by shaking and static exposures, respectively. After treatment with test substances, cells were centrifuged (1000 rpm, 5 min), supernatants were removed, and cells were washed with a serum-free medium or Hank’s Balanced Salt Solution. After centrifugation (1000 rpm, 5 min) to remove the supernatant, cells (2 × 10^7 cells) were dispersed in an RPMI medium containing 10% serum, and cell concentration was measured. Treated cells were cultured at 37 °C with 5% CO2 condition and used for TK6 assays. At that time, to calculate the cloning efficiency (CE) (Eq. 1), the cells were cultured in a 96-well microplate at a concentration of about 1.6 cells/well for 2 weeks.
The TK6 assay is conducted between 20 and 10% RS0 as a maximum dose if cytotoxicity is observed. If no precipitate or limiting cytotoxicity was observed, the maximum dose was the lowest concentration among 10 mM, 2 mg/mL, or 2 μL/mL of the test substance. When the main TK6 assay was difficult to conduct under the condition of RS0 values from 20 to 10%, the test was conducted between 20 and 10% relative total growth (RTG), described later, as a maximum dose.
On the third day of culture, CE3 plates for determining plating efficiency and mutant frequency (MF) plates for mutation detection were prepared. CE3 plates were seeded in 96-well microplates at a concentration of about 1.6 cells/well. The MF plates were seeded in 96-well microplates at 40,000 cells/well in the presence of 3 μg/mL of trifluorothymidine (Sigma Aldrich).
Mutant colonies in MF plates were calculated using Eq. 7 using the Poisson distribution. EW was the number of wells without colonies, and TW was the total number of wells. N was the average number of cells per well (N = 40,000 in this study). The data were statistically analyzed by Omori’s method, a modified Dunnett’s procedure for identifying clear negatives, a Simpson–Margolin procedure for detecting downturn data, and a trend test to evaluate the dose dependency [42, 43]. The acceptability criterion for the test was that the MF value of the positive control group of each laboratory was increased with statistical significance compared with that of the concurrent negative control group.

[2] = test system: TK6 cells; experiment: Cytotoxicity in the TK6 assay (CE, RS, RSG, RTG)
[3] = TK6, short treatment -S9 mix, 250 μg/mL
[4] = TK6, short treatment -S9 mix, 500 μg/mL
[5] = TK6, short treatment -S9 mix, 1000 μg/mL
[6] = TK6, short treatment -S9 mix, 2000 μg/mL
[7] = dose 250 μg/mL, +S9 mix, short treatment
[8] = dose 250 μg/mL, -S9 mix, 24 h treatment
[9] = dose 500 μg/mL, +S9 mix, short treatment
[10] = dose 500 μg/mL, -S9 mix, 24 h treatment
[11] = dose 1000 μg/mL, +S9 mix, short treatment
[12] = dose 1000 μg/mL, -S9 mix, 24 h treatment
[13] = dose 2000 μg/mL, +S9 mix, short treatment
[14] = dose 2000 μg/mL, -S9 mix, 24 h treatment
[15] = dose 3.00 μg/mL, short treatment, +S9 mix
[16] = short treatment, +S9 mix, positive control, dose 10.00 μg/mL
[17] = Short treatment, +S9 mix, 3.00 μg/mL
[18] = Short treatment, +S9 mix, 3.00 μg/mL, Day 0
[19] = short treatment, +S9 mix, Day 0, positive control, dose 10.00 μg/mL

SMILES: Cc1c(N)cccc1N [2,6-DAT]
- %SG [1, 3]: 77.8%
- Mut. freq. (×10-6) N-MF [1, 3]: 2.2 ×10-6
- Mut. freq. (×10-6) S-MF [1, 3]: 7.9 ×10-6
- Mut. freq. (×10-6) T-MF [1, 3]: 10.1 ×10-6
- %SG [1, 4]: 86.8%
- Mut. freq. (×10-6) N-MF [1, 4]: 0.9 ×10-6
- Mut. freq. (×10-6) S-MF [1, 4]: 5.8 ×10-6
- Mut. freq. (×10-6) T-MF [1, 4]: 6.7 ×10-6
- %SG [1, 5]: 83.3%
- Mut. freq. (×10-6) N-MF [1, 5]: 2.1 ×10-6
- Mut. freq. (×10-6) S-MF [1, 5]: 10.3 ×10-6
- Mut. freq. (×10-6) T-MF [1, 5]: 12.3 ×10-6
- %SG [1, 6]: 78.9%
- Mut. freq. (×10-6) N-MF [1, 6]: 1.9 ×10-6
- Mut. freq. (×10-6) S-MF [1, 6]: 7.3 ×10-6
- Mut. freq. (×10-6) T-MF [1, 6]: 9.2 ×10-6
- %SG [1, 7]: 74.2%
- Mut. freq. N-MF [1, 7]: 2.7 ×10-6
- Mut. freq. S-MF [1, 7]: 7.7 ×10-6
- Mut. freq. T-MF [1, 7]: 10.3 ×10-6
- %SG [1, 8]: 76.3%
- Mut. freq. N-MF [1, 8]: 3.4 ×10-6
- Mut. freq. S-MF [1, 8]: 10.8 ×10-6
- Mut. freq. T-MF [1, 8]: 14.2 ×10-6
- %SG [1, 9]: 83.1%
- Mut. freq. N-MF [1, 9]: 1.5 ×10-6
- Mut. freq. S-MF [1, 9]: 7.6 ×10-6
- Mut. freq. T-MF [1, 9]: 9.1 ×10-6
- %SG [1, 10]: 79.9%
- Mut. freq. N-MF [1, 10]: 3.0 ×10-6
- Mut. freq. S-MF [1, 10]: 11.9 ×10-6
- Mut. freq. T-MF [1, 10]: 14.9 ×10-6
- %SG [1, 11]: 79.2%
- Mut. freq. N-MF [1, 11]: 1.8 ×10-6
- Mut. freq. S-MF [1, 11]: 7.0 ×10-6
- Mut. freq. T-MF [1, 11]: 8.9 ×10-6
- %SG [1, 12]: 87.5%
- Mut. freq. N-MF [1, 12]: 3.4 ×10-6
- Mut. freq. S-MF [1, 12]: 24.1 ×10-6
- Mut. freq. T-MF [1, 12]: 27.5 ×10-6
- %SG [1, 13]: 80.8%
- Mut. freq. N-MF [1, 13]: 3.4 ×10-6
- Mut. freq. S-MF [1, 13]: 14.5 ×10-6
- Mut. freq. T-MF [1, 13]: 17.9 ×10-6
- %SG [1, 14]: 84.3%
- Mut. freq. N-MF [1, 14]: 3.4 ×10-6
- Mut. freq. S-MF [1, 14]: 18.1 ×10-6
- Mut. freq. T-MF [1, 14]: 21.4 ×10-6
- Adjusted CE0(%) [2, 3]: 52.1%
- CE0 (%), cell viability on Day 0 [2, 3]: 53.2%
- CE3 (%), cell viability on Day 3 [2, 3]: 116.0%
- RS0 (%) [2, 3]: 75.5%
- RSG [2, 3]: 0.717
- CE3 ([2]; TK6, short treatment -S9 mix, 250 μg/mL, as fraction): 1.160
- Adjusted CE0(%) [2, 4]: 49.9%
- CE0 (%), cell viability on Day 0 [2, 4]: 48.8%
- CE3 (%), cell viability on Day 3 [2, 4]: 104.6%
- RS0 (%) [2, 4]: 72.4%
- RSG [2, 4]: 0.788
- CE3 ([2]; TK6, short treatment -S9 mix, 500 μg/mL, as fraction): 1.046
- Adjusted CE0(%) [2, 5]: 40.8%
- CE0 (%), cell viability on Day 0 [2, 5]: 40.8%
- CE3 (%), cell viability on Day 3 [2, 5]: 92.1%
- RS0 (%) [2, 5]: 59.2%
- RSG [2, 5]: 0.679
- CE3 ([2]; TK6, short treatment -S9 mix, 1000 μg/mL, as fraction): 0.921
- Adjusted CE0(%) [2, 6]: 26.2%
- CE0 (%), cell viability on Day 0 [2, 6]: 28.3%
- CE3 (%), cell viability on Day 3 [2, 6]: 112.0%
- RS0 (%) [2, 6]: 38.0%
- RSG [2, 6]: 0.616
- CE3 ([2]; TK6, short treatment -S9 mix, 2000 μg/mL, as fraction): 1.120
- Adjusted CE0 [2, 7]: 75.0%
- CE0 (cell viability on Day 0) [2, 7]: 72.7%
- CE3 (cell viability on Day 3) [2, 7]: 81.6%
- RS0 [2, 7]: 80.9%
- RSG [2, 7]: 0.721
- CE3 ([2]; dose 250 μg/mL, +S9 mix, short treatment, as fraction): 0.816
- Adjusted CE0 [2, 8]: 51.3%
- CE3 (cell viability on Day 3) [2, 8]: 95.0%
- RS0 [2, 8]: 57.2%
- RSG [2, 8]: 0.982
- CE3 ([2]; dose 250 μg/mL, -S9 mix, 24 h treatment, as fraction): 0.950
- Adjusted CE0 [2, 9]: 70.6%
- CE0 (cell viability on Day 0) [2, 9]: 68.7%
- CE3 (cell viability on Day 3) [2, 9]: 86.6%
- RS0 [2, 9]: 76.2%
- RSG [2, 9]: 0.855
- CE3 ([2]; dose 500 μg/mL, +S9 mix, short treatment, as fraction): 0.866
- Adjusted CE0 [2, 10]: 25.3%
- CE0 (cell viability on Day 0) [2, 10]: 36.0%
- RS0 [2, 10]: 28.1%
- RSG [2, 10]: 0.472
- CE3 ([2]; dose 500 μg/mL, -S9 mix, 24 h treatment, as fraction): 1.160
- Adjusted CE0 [2, 11]: 45.8%
- CE0 (cell viability on Day 0) [2, 11]: 43.3%
- CE3 (cell viability on Day 3) [2, 11]: 95.0%
- RS0 [2, 11]: 49.5%
- RSG [2, 11]: 0.544
- CE3 ([2]; dose 1000 μg/mL, +S9 mix, short treatment, as fraction): 0.950
- Adjusted CE0 [2, 12]: 25.1%
- CE3 (cell viability on Day 3) [2, 12]: 101.2%
- RS0 [2, 12]: 28.0%
- RSG [2, 12]: 0.453
- CE3 ([2]; dose 1000 μg/mL, -S9 mix, 24 h treatment, as fraction): 1.012
- Adjusted CE0 [2, 13]: 31.8%
- CE0 (cell viability on Day 0) [2, 13]: 31.5%
- CE3 (cell viability on Day 3) [2, 13]: 84.1%
- RS0 [2, 13]: 34.3%
- RSG [2, 13]: 0.246
- CE3 ([2]; dose 2000 μg/mL, +S9 mix, short treatment, as fraction): 0.841
- Adjusted CE0 [2, 14]: 20.5%
- CE0 (cell viability on Day 0) [2, 14]: 25.3%
- CE3 (cell viability on Day 3) [2, 14]: 108.2%
- RS0 [2, 14]: 22.8%
- RSG [2, 14]: 0.237
- CE3 ([2]; dose 2000 μg/mL, -S9 mix, 24 h treatment, as fraction): 1.082

SMILES: O=P1(N(CCCl)CCCl)NCCCO1 (centres unmarked) [CP, Cyclophosphamide, reference compound]
- %SG [1, 15]: 75.7%
- Mut. freq. (×10-6) N-MF [1, 15]: 14.0 ×10-6
- Mut. freq. (×10-6) S-MF [1, 15]: 43.8 ×10-6
- Mut. freq. (×10-6) T-MF [1, 15]: 57.8 ×10-6
- mutant frequency of the concurrent positive control (mean) ([1]; short treatment with S9 mix, 2.5–3 μg/mL): 28.6 × 10^− 6
- %SG [1, 16]: 50.8%
- Mut. freq. N-MF [1, 16]: 10.0 ×10-6
- Mut. freq. S-MF [1, 16]: 10.3 ×10-6
- Mut. freq. T-MF [1, 16]: 20.3 ×10-6
- Daily cell growth Day 1×2×3 [2, 17]: 7.35
- RSG [2, 17]: 0.385
- Adjusted CE0 [2, 18]: 34.5%
- CE0 [2, 18]: 36.0%
- RS0 [2, 18]: 43.1%
- CE3 ([2]; Short treatment, +S9 mix, 3.00 μg/mL, Day 3): 66.7%
- CE3 [2, 15]: 0.667
- RS [2, 15]: 43.1
- Adjusted CE0 [2, 19]: 11.6%
- CE0 [2, 19]: 10.6%
- RS0 [2, 19]: 12.2%
- CE3 ([2]; short treatment, +S9 mix, Day 3, positive control, dose 10.00 μg/mL): 68.7%
- CE3 ([2]; short treatment, +S9 mix, as fraction, positive control, dose 10.00 μg/mL): 0.687
- RSG [2, 16]: 0.063
